Measured values published in paper PMC9841533, “Microtubule-Stabilizing 1,2,4-Triazolo[1,5-a]pyrimidines as Candidate Therapeutics for Neurodegenerative Disease: Matched Molecular Pair Analyses and Computational Studies Reveal New Structure–Activity Insights” (Journal of Medicinal Chemistry, 2022).
Like-named read-outs stand apart in the source and are kept apart here.

What was measured:
[1] = system: acetylated α-tubulin (AcTub) levels in QBI293 cells; assay: QBI293 cell assay of MT stabilization: acetylated α-tubulin ELISA; format: cell-based
In short: (§1)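 AcTub and α-Tub were quantified by ELISA in whole-cell extracts normalized by BCA protein and expressed relative to vehicle. AcTub changes were also scaled to a 100 nM reference stabilizer control.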

[2] = system: AcTub levels in OA-treated primary mouse cortical neurons; assay: Okadaic acid (OA) assay, AcTub ELISA in primary mouse cortical neurons; format: cell-based; details: OA 15 nM, 8 h, compound 1 and 10 μM
Description: To further evaluate the activity of Class I alkyne derivatives and hybrid compounds, several compounds were also assessed for their ability to compensate for MT deficits in primary neuron cultures that were treated with the phosphatase inhibitor, okadaic acid (OA). As previously described,[11] treatment of rodent neurons with OA results in tau hyperphosphorylation and MT collapse that presumably results, at least in part, from tau disengagement from MTs. Co-treatment of neurons with Class I TPDs, such as 1, along with OA prevents this MT collapse, with a resulting normalization of MT structure and neuronal processes which can be observed upon visual inspection of the neurons or through an assessment of neuronal AcTub levels, while Class II TPDs are generally unable to provide meaningful compensation of MT deficits, especially when tested at higher (i.e., 10 μM) compound concentration.[11],[12]
Figure 4 ELISA determination of AcTub levels in homogenates from primary rat cortical neurons treated with either vehicle, or OA (15 nM) in the presence of vehicle or TPD 1, 8, 9 (A); and primary mouse cortical neurons treated with vehicle, or OA (15 nM) in the presence of vehicle or TPD 1, 24, 45, 46, 53, 54 (B). Error bars represent SEM, with ***, p < 0.001 relative to vehicle treatment in the absence of OA as determined by one-way ANOVA.
Compound-induced changes in acetylated-tubulin and α-tubulin in QBI293 cells or primary mouse or rat neurons were as previously described.[11],[12] For compound testing, QBI293 cells were plated at a density of 2 × 10^5 cells/well in 12-well plates. The plated cells were incubated overnight, after which the medium was aspirated and fresh medium containing vehicle (0.25–0.3% DMSO) or test compound was added. Test compounds were prepared as 4–20 mM stock solutions in 100% DMSO, and these were diluted in culture medium prior to addition to the QBI293 cells. After 4 h incubation, whole-cell extracts were prepared from the QBI293 cells as described[11] and the supernatant fraction from each sample was assessed for protein content by bicinchoninic acid (BCA) assay. The amount of acetyl-tubulin (AcTub) and α-tubulin (αTub) within the cell extract samples was quantified using specific enzyme-linked immunosorbent assays (ELISA), as previously described.[11] Acetyl-tubulin levels were determined in a similar manner in rat or mouse cortical neuron cultures in which embryonic dissociated cortical neurons were plated at 3 × 10^5 cells/well in poly-D-lysine-coated 12-well plates, essentially as previously described.[11] The neurons were allowed to grow for 10 days before they were treated for 8 h with 15 nM okadaic acid in the presence or absence of test compound prepared as described above, or vehicle (0.25% DMSO). Culture homogenates were prepared for the determination of AcTub levels by ELISA as previously described.[11]
VehicleVehicleVehicleVehicle25 (1 µM)
Figure S2. Assessment of AcTub levels in primary mouse cortical neurons treated with vehicle,
(§2) (1 picture or pasted object on this page, not shown here)

[3] = system: total α-tubulin (α-Tub) levels in QBI293 cells; assay: QBI293 cell assay: total α-tubulin ELISA; format: cell-based
In short: as §1

[4] = system: acetylated α-tubulin (AcTub) levels in QBI293 cells; design: method as in PMID 26980057, PMID 33411523; details: 4 h incubation, 10 μM, reported in previous studies; cited from earlier work
[5] = Resazurin cell viability assay, QBI293; format: cell-based; details: human, QBI293 cells, three biological replicates, read-out: QBI293 CC50 ± SD
Description: (§3) Cell Culture. QBI293 and HeLa cells were cultured in DMEM supplemented with 10% heat-
(§4) inactivated FBS and 1% penicillin-streptomycin. Cells were grown in T175 cell culture flasks maintained
(§5) at 37 ℃ in 5% CO2 and sub-c ultured when at 60-8 0% cell confluence.
(§6) Resazurin Cell Viability Assay. Cytotoxicity in QBI293 and HeLa cells was measured using the
(§7) resazurin cell viability assay.1 Test compounds were serially diluted in DMSO and added to 96-well
(§8) polystyrene assay plates to give final assay concentrations ranging from 100 nM to 4000 nM (1 µL; 1%
(§9) total DMSO). Fresh medium was added to the assay plate (49 µL/well). QBI293 or HeLa cells were
(§10) cells/well. Assay plates were incubated at 37 °C and 5% CO2 for 48 h, followed by addition of 20 µL 0.5
(§11) mM resazurin (Alfa Aesar, Cat. B21187) in PBS to each well. Assay plates were incubated in the dark for
as §2
(§12) 4 h at 37 °C. Fluorescence was measured at 531 nm and 595 nm excitation and emission wavelengths,
(§13) respectively, using a 2104 EnVision® multilabel plate reader. The viability of each well was normalized to
(§14) positive and negative controls in each assay plate. Dose-response curves were generated and CC50 values
(§15) calculated with GraphPad Prism, version 9.3 (San Diego, CA) using a sigmoidal four parameter logistic
(§16) curve. The means ± standard deviations from three biological replicates are shown.
(§17) (1) O'Brien, J.; Wilson, I.; Orton, T.; Pognan, F. Investigation of the Alamar Blue (resazurin) fluorescent
(§18) dye for the assessment of mammalian cell cytotoxicity. Eur. J. Biochem. 2000, 267 (17), 5421-5426.

[6] = Resazurin cell viability assay, HeLa; format: cell-based; details: human, HeLa cells, three biological replicates, read-out: HeLa CC50 ± SD
Description: as §3, §4, §5, §6, §7, §8, §9, §10, §11, §2, §12, §13, §14, §15, §16, §17, §18

[7] = system: total α-tubulin (α-Tub) levels in QBI293 cells; design: method as in PMID 26980057, PMID 33411523; details: 4 h incubation, 10 μM, reported in previous studies; cited from earlier work
[8] = 4 h, 1 uM compound, read-out: AcTub (1uM)
[9] = 4 h, 10 uM compound, read-out: AcTub (10 uM)
[10] = 4 h incubation, 1 μM, read-out: AcTub 1 μM, fold-change compared to vehicle (DMSO)-treated cells
[11] = 4 h incubation, 10 μM, read-out: AcTub 10 μM, fold-change compared to vehicle (DMSO)-treated cells
[12] = 4 h, 1 uM compound, read-out: AlfaTub (1uM)
[13] = 4 h, 10 uM compound, read-out: AlfaTub (10 uM)
[14] = 4 h incubation, 1 μM, read-out: α-Tub 1 μM, fold-change compared to vehicle (DMSO)-treated cells
[15] = 4 h incubation, 10 μM, read-out: α-Tub 10 μM, fold-change compared to vehicle (DMSO)-treated cells

SMILES | AcTub (1 uM - normalized) ([1]; 1 uM compound) | AcTub (10 uM - normalized) ([1]; 10 uM compound) | fold induction at 1 µM [1, 8] | fold induction at 10 µM [1, 9] | AcTub 1 μM, fold-change compared to positive control compound 5 (100 nM) (in parentheses) ([1]; 4 h incubation, 1 μM) [fold-change] | fold induction at 1 µM [1, 10] | AcTub 10 μM, fold-change compared to positive control compound 5 (100 nM) (in parentheses) ([1]; 4 h incubation, 10 μM) [fold-change] | fold induction at 10 µM [1, 11] | prevention/correction of OA-induced MT collapse (AcTub levels) [2] | fold induction at 1 µM [3, 12] | fold induction at 10 µM [3, 13] | fold induction at 1 µM [3, 14] | fold induction at 10 µM [3, 15] | AcTub 10 μM, fold-change compared to vehicle (DMSO)-treated cells [4] [fold-change] | CC50 at 48 h [5] [nM] | CC50 at 48 h [6] [nM] | α-Tub 10 μM, fold-change compared to vehicle (DMSO)-treated cells [7] [fold-change]
C[C@@H](Nc1c(-c2c(F)cc(OCCCO)cc2F)c(Cl)nc2ncnn12)C(C)(C)C [Compound 25, (R)-3-(4-(5-Chloro-7-((3,3-dimethylbutan-2-yl)amino)-[1,2,4]triazolo[1,5-a]pyrimidin-6-yl)-3,5-difluorophenoxy)propan-1-ol] | 1.01 | 0.98 | 9.17 | 8.92 | 1.01 | 9.17 ± 0.13 | 0.98 | 8.92 ± 0.36 | lesser recovery of OA-induced MT collapse | 0.96 | 1.06 | 0.96 ± 0.03 | 1.06 ± 0.03 |  |  |  | 
CC(C)[C@@H](C)Nc1c(-c2c(F)cc(C#CCCO)cc2F)c(Cl)nc2ncnn12 [Compound 45, (R)-4-(4-(5-Chloro-7-((3-methylbutan-2-yl)amino)-[1,2,4]triazolo[1,5-a]pyrimidin-6-yl)-3,5-difluorophenyl)but-3-yn-1-ol] | 0.48 | 0.82 | 5.9 | 10.1 | 0.48 | 5.9 ± 0.32 | 0.82 | 10.1 ± 0.71 | can prevent the OA-induced MT collapse | 1 | 0.95 | 1 ± 0.03 | 0.95 ± 0.03 |  |  |  | 
CC(C)[C@@H](C)Nc1c(-c2c(F)cc(C#CCCCO)cc2F)c(Cl)nc2ncnn12 [Compound 46, (R)-5-(4-(5-Chloro-7-((3-methylbutan-2-yl)amino)-[1,2,4]triazolo[1,5-a]pyrimidin-6-yl)-3,5-difluorophenyl)pent-4-yn-1-ol] | 0.40 | 0.68 | 2.59 | 4.43 | 0.40 | 2.59 ± 0.16 | 0.68 | 4.43 ± 0.56 | can prevent the OA-induced MT collapse | 1 | 1.37 | 1 ± 0.08 | 1.37 ± 0.05 |  |  |  | 
C[C@@H](Nc1c(-c2c(F)cc(C#CCCCO)cc2F)c(Cl)nc2ncnn12)C(C)(C)C [Compound 54, (R)-5-(4-(5-Chloro-7-((3,3-dimethylbutan-2-yl)amino)-[1,2,4]triazolo[1,5-a]pyrimidin-6-yl)-3,5-difluorophenyl)pent-4-yn-1-ol] | 0.74 | 0.87 | 4.78 | 5.59 | 0.74 | 4.78 ± 1 | 0.87 | 5.59 ± 0.26 | can prevent the OA-induced MT collapse | 1.19 | 1.14 | 1.19 ± 0.11 | 1.14 ± 0.077 |  |  |  | 
C[C@H](Nc1c(-c2c(F)cc(OCCCO)cc2F)c(Cl)nc2ncnn12)C(F)(F)F [Compound 64] | 1.24 | 0.19 | 6.76 | 1.03 |  |  |  |  |  | 0.73 | 0.37 |  |  | 1.03 ± 0.02 | 226 ± 17 | 189 ± 19 | 0.37 ± 0.02
CC(=O)O[C@H]1C(=O)[C@@]2(C)[C@H]([C@H](OC(=O)c3ccccc3)[C@]3(O)C[C@H](OC(=O)[C@H](O)[C@@H](NC(=O)c4ccccc4)c4ccccc4)C(C)=C1C3(C)C)[C@]1(OC(C)=O)CO[C@@H]1C[C@@H]2O [Taxol, reference compound] |  |  |  |  |  |  |  |  |  |  |  |  |  |  | 1.29 ± 0.16 | 1.53 ± 0.26 | 
CC[C@]1(O)C[C@@H]2CN(CCc3c([nH]c4ccccc34)[C@@](C(=O)OC)(c3cc4c(cc3OC)N(C)[C@H]3[C@@](O)(C(=O)OC)[C@H](OC(C)=O)[C@]5(CC)C=CCN6CC[C@]43[C@@H]65)C2)C1 [Vinblastine, reference compound] |  |  |  |  |  |  |  |  |  |  |  |  |  |  | 3.23 ± 0.67 | 2.11 ± 0.1 | 
